# Where a name gives a salt, the structure may show the parent alone. Read-outs that look alike come from different tables or passages of the source.
# Tests used:
# [1] = tested on: apomorphine induced stereotyped behaviour; test: apomorphine induced stereotyped behaviour; type: in vivo; conditions: rat; in words
# Mouse [2] = test: anticonvulsant activity, Maximal Electroshock Test (MES); type: in vivo; conditions: for ED50: ip, Mouse, Maximal Electroshock Test
# From the text: | ^(a) Maximal Electroshock Test (Woodbury and Davenport, Arch. Int. | Pharmacodyn. Ther., 92, 97-107 (1952).
# [3] = tested on: locomotor activity of d-amphetamine; test: potentiation of locomotor activity of d-amphetamine; type: in vivo; conditions: in words
# Mouse [4] = conditions: in vivo; for Loss of Righting Reflex ED min.: ip
# [5] = tested on: anti-cholinergic activity; test: anti-cholinergic activity; conditions: in words
# [6] = tested on: apomorphine-induced aggression; test: antagonism of apomorphine-induced aggression (antiaggressive activity); conditions: for ED50: Rattus norvegicus
# muricidal behaviour = test: inhibition of instinctive muricidal (mouse killing) behaviour; type: in vivo, rat; conditions: rats
# anti-histamine activity = test: anti-histamine activity; conditions: in words
# [7] = side-effects such as sedation, catalepsy and extrapyramidal dysfunction; type: in vivo; conditions: in words
# [8] = antagonism of apomorphine-induced aggression (antiaggressive activity); conditions: rat, in vivo, po
# Rat = conditions: in vivo; for Muscle Tone Decrease ED min.: ip
# [9] = acute oral lethality (LD50) in rat; conditions: in vivo, p.o.
# [10] = acute lethality (LD50) in male mice; conditions: mouse, in vivo
# [11] = po, read-out: Antiaggressive ED50
structure (smiles),measurement,setting,value
"C[C@@H]1CN(CCCn2c3ccccc3c3ccccc32)C[C@H](C)N1 [Carbazole, 9-[3-(3,5-cis-dimethylpiperazino)propyl]carbazole]",antagonism of apomorphine induced stereotyped behaviour,[1],failure to antagonise apomorphine induced stereotyped behaviour
same,"anticonvulsant activity of the ""Carbazole"" relative to cpd. B",Mouse [2]; in words,less than half the anticonvulsant activity of cpd. B
same,potentiation of the locomotor activity of d-amphetamine,[3],potentiates the locomotor activity of d-amphetamine
same,minimum dose for loss of righting reflex relative to compound B,Mouse [4],about three times that of compound B
same,anti-cholinergic activity relative to phenothiazines,[5],significantly less
same,"potency of anti-aggressive and anti-psychotic properties relative to non-methylated, 4-methyl, 3,4,5-trimethyl and 3,5-trans-dimethyl compounds",[6]; comparison in words,"more potent than either the corresponding non-methylated compound or any of the analogous 4-methyl, 3,4,5-trimethyl or 3,5-trans-dimethyl compounds"
same,antagonism of apomorphine-induced aggression,"[6]; rat, in words",antagonised apomorphine-induced aggression
same,suppression of instinctive muricidal (mouse killing) behaviour,muricidal behaviour; in words,suppress the instinctive muricidal (i.e. mouse killing) behaviour
same,anti-histamine activity relative to phenothiazines,anti-histamine activity,significantly less
same,"undesirable side-effects such as sedation, catalepsy and extrapyramidal dysfunction",[7],substantially free from undesirable side-effects
"C[C@@H]1CN(CCCn2c3ccccc3c3ccccc32)C[C@H](C)N1 [Example 1, 9-[3-(3,5-cis-Dimethylpiperazino)propyl]carbazole dihydrochloride hemihydrate]",ED50,Mouse [2],43 mg/kg
same,Loss of Righting Reflex ED min.,Mouse [4],160 mg/kg
same,selectivity ratio,[8],20
same,ED50,"[6]; ip, read-out: ED50 (anti-aggressive)",12.5 mg/kg
same,ED50,[6]; [11],48 mg/kg
same,Muscle Tone Decrease ED min.,Rat,125 mg/kg
same,LD50,[9],957 mg/kg
same,LD50,"[10]; intravenous, read-out: LD50 intravenous",31 mg/kg
same,LD50,"[10]; oral, read-out: LD50 oral",977 mg/kg
same,ED50,"muricidal behaviour; Rattus norvegicus, ip, intraperitoneal, read-out: ED50 (anti-muricidal)",15 mg/kg
O=C1NC(=O)C(c2ccccc2)(c2ccccc2)N1 [Phenytoin],ED50,Mouse [2],8.5 mg/kg
same,"anticonvulsant activity relative to the ""Carbazole"" (cpd. A)",Mouse [2]; phenytoin vs cpd. A,5 times
same,anticonvulsant activity relative to cpd. B,Mouse [2]; phenytoin vs cpd. B,~2.5 times
same,Loss of Righting Reflex ED min.,Mouse [4],> 100 mg/kg
"CN1CCN(CCCn2c3ccccc3c3ccccc32)CC1 [compound B, 9-[3-(4-methylpiperazino)propyl]carbazole, reference compound]",level of anticonvulsant activity,Mouse [2]; assessment in words,marginal
same,ED50,Mouse [2],20 mg/kg
same,Loss of Righting Reflex ED min.,Mouse [4],50 mg/kg
same,selectivity ratio,[8],11
same,ED50,[6]; [11],75 mg/kg
same,"dose at which muscle tone decrease is observed relative to the ""Carbazole""",Rat,much lower dose
same,Muscle Tone Decrease ED min.,Rat,50 mg/kg
same,LD50,[9],830 mg/kg
